Experimental data published in patent US20260209211A1, “CYCLIN K DEGRADER AND USE THEREOF” (ADLAI NORTYE BIOPHARMA CO., LTD., priority 2022, published 2026).

What was measured:
Format in all cases: cell-based
[1] = system: NCI-N87 (Human Gastric Cancer Cell); experiment: Bioactivity detection of NCI-N87 cell growth inhibition (CellTiter-Glo); conditions: NCI-N87 cells, 72 hours, highest concentration 10 μM, read-out: N87 CTG IC50
Experimental: This detection method is used to evaluate the biological activity of the compounds described in this disclosure at the cellular level.
(§1) NCI-N87 cells (purchased from the Chinese Academy of Sciences) were harvested, resuspended in complete medium and adjusted to a cell density of 0.1×10^6 cells per ml. The cell suspension was added to a 96-well plate at a volume of 100 μL per well and cultured overnight in a 37° C., 5% CO2 incubator. Prepare the test compound and add it to the cell plate so that the highest concentration of the compound is 10 μM. Set 8 concentration points according to 3-fold dilution. At the same time, 100% inhibition control wells were set, that is, wells with no cells but only an equal volume of complete culture medium; and 0% inhibition control wells, that is, wells with cells added with 0.1% DMSO. The cell plate was cultured at 37° C. and 5% CO2 for 72 hours. Remove the cell culture plate and add 25 μl CellTiter-Glo Luminescent Cell Viability Reagent (promega cat #G7573) to each well. Incubate in the dark for 10 minutes and then transfer 100 μL to a white plate and use Molecular Devices SpectraMax i3 to detect chemiluminescence. The inhibition rate was calculated using the following formula for data processing: compound inhibition rate=(0% inhibition control well signal−compound treatment well signal)/(0% inhibition control well signal−100% inhibition control well signal)*10000. The calculated data were fitted with four parameters using GraphPad Prism software and the corresponding IC50 was calculated.

[2] = system: HGC27 (Human Gastric Cancer Cell); experiment: Bioactivity assay for HGC27 cell growth inhibition (CellTiter-Glo); conditions: HGC-27, HGC27 cells, 24 hours, CellTiter-Glo, highest concentration 10 μM, read-out: HGC27 CTG IC50
Experimental: This detection method is used to evaluate the biological activity of the compounds of the present disclosure at the cellular level.
as §1, with “HGC27” for “NCI-N87”, “0.2×10^6” for “0.1×10^6”, “24” for “72”, “CellTiter-Glo®” for “CellTiter-Glo”, “signal)*100%.” for “signal)*10000.”

[3] = biological target: T1, Cyclin K (CCNK) (Homo sapiens, UniProt O75909+Q9NYV4); experiment: Western blot analysis of Cyclin K (CCNK) degradation in HEK293 cells; conditions: 6 h, different concentrations, compared with the control (FIG. 1)
T1 construct: host or cells: HEK293
Experimental: HEK293 cells (ATCC, cat #CRL-1573) were harvested and the cell density was adjusted to 1×10^6 cells per ml. 1 ml of cell suspension was plated into each well of a 6-well plate and cultured overnight. The compound stock solution was taken and diluted with DMSO to the appropriate concentration. The diluted compounds were added to the cell wells at a ratio of 1:1000 using culture medium to ensure that the DMSO concentration in each well was 0.1%. Negative control wells were also set up, which contained complete medium containing 0.1% DMSO. After treatment with the compounds at the concentrations indicated in the figures and at different times, total cell protein was extracted using RIPA cell lysis buffer (Beyotime, cat #P0013B) containing PMSF. After protein quantification using the BCA protein quantification kit (Thermo Fisher, cat #A53225), each sample was loaded with 40 μg for subsequent SDS-PAGE and western blot experiments. The specific conditions are as follows: after running the gel at a constant voltage of 120 V for 90 minutes, transfer the membrane at a constant current of 320 mA for 60 minutes. Incubate the antibodies according to the recommended dilution ratio and incubation time. The antibody information used in the experiment is as follows: Anti-GAPDH antibody (abcam, cat #ab9485), Anti-Cyclin K antibody (abcam, cat #ab85854), Goat anti-Rabbit IgG (H+L) Cross-Adsorbed Secondary Antibody, HRP (invitrogen, cat #G-21234). ECL luminescent solution (Thermo Fisher, cat #32209) was used for color development. The final results were analyzed using a gel imaging system.
According to the above detection method, some compounds described in the present disclosure were evaluated.

T1 sequence (O75909 whole entry): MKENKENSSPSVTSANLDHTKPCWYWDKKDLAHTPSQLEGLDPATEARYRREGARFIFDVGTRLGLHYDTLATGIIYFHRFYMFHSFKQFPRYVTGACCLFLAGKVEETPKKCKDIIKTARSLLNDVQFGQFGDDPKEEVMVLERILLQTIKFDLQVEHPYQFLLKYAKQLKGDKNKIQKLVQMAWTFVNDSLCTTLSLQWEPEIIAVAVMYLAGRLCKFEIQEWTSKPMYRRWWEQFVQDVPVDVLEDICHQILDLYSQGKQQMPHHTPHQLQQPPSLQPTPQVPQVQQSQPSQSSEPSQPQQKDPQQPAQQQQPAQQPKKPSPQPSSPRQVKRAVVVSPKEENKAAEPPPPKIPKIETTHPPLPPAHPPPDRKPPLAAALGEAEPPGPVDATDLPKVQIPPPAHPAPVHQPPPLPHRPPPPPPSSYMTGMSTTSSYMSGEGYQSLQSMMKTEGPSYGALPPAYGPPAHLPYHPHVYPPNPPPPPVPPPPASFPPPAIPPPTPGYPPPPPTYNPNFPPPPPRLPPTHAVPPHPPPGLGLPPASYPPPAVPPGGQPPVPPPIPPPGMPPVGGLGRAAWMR
T1 sequence (Q9NYV4 whole entry): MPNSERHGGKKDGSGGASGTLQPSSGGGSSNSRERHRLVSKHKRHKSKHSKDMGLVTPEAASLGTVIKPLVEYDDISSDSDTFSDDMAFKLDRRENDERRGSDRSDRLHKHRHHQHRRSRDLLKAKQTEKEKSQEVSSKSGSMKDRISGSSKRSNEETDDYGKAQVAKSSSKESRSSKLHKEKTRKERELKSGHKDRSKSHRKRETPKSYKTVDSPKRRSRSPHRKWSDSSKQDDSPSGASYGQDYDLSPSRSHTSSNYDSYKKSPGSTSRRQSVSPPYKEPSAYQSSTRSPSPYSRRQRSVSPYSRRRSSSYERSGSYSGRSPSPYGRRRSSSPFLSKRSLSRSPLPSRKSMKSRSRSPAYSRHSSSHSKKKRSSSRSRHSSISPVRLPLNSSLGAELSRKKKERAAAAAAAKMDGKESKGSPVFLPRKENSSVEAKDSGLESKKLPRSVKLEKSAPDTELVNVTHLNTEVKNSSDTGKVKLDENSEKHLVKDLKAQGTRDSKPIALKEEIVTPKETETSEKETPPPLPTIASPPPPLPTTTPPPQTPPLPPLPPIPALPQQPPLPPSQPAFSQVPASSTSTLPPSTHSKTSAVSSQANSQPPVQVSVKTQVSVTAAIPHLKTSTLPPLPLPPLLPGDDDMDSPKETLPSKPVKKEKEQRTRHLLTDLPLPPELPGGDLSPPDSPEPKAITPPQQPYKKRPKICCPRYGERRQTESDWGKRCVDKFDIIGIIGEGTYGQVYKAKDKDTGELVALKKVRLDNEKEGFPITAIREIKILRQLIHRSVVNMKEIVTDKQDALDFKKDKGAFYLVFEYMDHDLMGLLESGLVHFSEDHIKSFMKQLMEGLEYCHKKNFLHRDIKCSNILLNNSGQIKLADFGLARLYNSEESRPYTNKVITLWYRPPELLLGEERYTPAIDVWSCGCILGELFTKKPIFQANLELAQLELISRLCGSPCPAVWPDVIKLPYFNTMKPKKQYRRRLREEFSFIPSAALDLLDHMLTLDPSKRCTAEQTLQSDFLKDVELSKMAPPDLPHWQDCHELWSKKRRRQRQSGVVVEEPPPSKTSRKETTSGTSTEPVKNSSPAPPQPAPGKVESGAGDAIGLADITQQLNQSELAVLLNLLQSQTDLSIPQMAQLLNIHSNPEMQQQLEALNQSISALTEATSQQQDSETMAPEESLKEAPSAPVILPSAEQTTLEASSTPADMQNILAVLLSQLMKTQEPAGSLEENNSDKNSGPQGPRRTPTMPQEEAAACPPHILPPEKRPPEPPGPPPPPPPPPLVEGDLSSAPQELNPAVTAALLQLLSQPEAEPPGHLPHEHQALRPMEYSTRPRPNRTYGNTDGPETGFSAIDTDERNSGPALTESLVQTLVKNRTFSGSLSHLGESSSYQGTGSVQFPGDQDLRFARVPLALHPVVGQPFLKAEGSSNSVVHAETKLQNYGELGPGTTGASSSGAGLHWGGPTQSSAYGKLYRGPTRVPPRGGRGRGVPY

Structure (SMILES) | IC50 [1] [nM] | IC50 [2] [nM] | degradation of Cyclin K (western blot) [3]
CC[C@@H](Nc1nc(NCc2ccc3c(c2)[nH]c2c(CO)ccnc23)ncc1C(F)(F)F)C(N)=O [Compound 17] | 3.1 | 68 | significantly induce the degradation of Cyclin K
C[C@@H](O)[C@@H](C)Oc1nc(NCc2ccc3c(c2)[nH]c2c(CO)ccnc23)ncc1C(F)(F)F [Compound 12] | 7.5 | 25 | significantly induce the degradation of Cyclin K
C[C@@H](O)[C@@H](C)Nc1nc(NCc2ccc3c(c2)[nH]c2c(CO)ccnc23)ncc1C(F)(F)F [Compound 18] | < 1 | 8 | significantly induce the degradation of Cyclin K
